Laboratory results as given in PubChem BioAssay (NCI).
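1) Cells in 96-well plates. 2) Compound, 48 h, 5 concentrations. 3) Linear interpolation between surrounding doses. 4) Unreached endpoint = highest concentration. At the GI50, growth is halved. TGI: total growth inhibition.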

Key:
Experiment in all cases: NCI anticancer screen, dose series, 48 h
HCT-15 colon = test system: HCT-15 colon
SNB-19 CNS = test system: SNB-19 CNS
HCC-2998 colon = test system: HCC-2998 colon
DU-145 prostate = test system: DU-145 prostate
MALME-3M melanoma = test system: MALME-3M melanoma
LOX IMVI melanoma = test system: LOX IMVI melanoma
A498 renal = test system: A498 renal
SK-MEL-5 melanoma = test system: SK-MEL-5 melanoma
MCF7 breast = test system: MCF7 breast
RPMI-8226 leukemia = test system: RPMI-8226 leukemia
HL-60(TB) leukemia = test system: HL-60(TB) leukemia
HS 578T breast = test system: HS 578T breast
T-47D breast = test system: T-47D breast
OVCAR-8 ovarian = test system: OVCAR-8 ovarian
SF-539 CNS = test system: SF-539 CNS
SF-268 CNS = test system: SF-268 CNS
NCI-H23 lung = test system: NCI-H23 lung
UO-31 renal = test system: UO-31 renal
SK-MEL-2 melanoma = test system: SK-MEL-2 melanoma
CCRF-CEM leukemia = test system: CCRF-CEM leukemia
SK-MEL-28 melanoma = test system: SK-MEL-28 melanoma
SN12C renal = test system: SN12C renal
SR leukemia = test system: SR leukemia
NCI-H460 lung = test system: NCI-H460 lung
SF-295 CNS = test system: SF-295 CNS
HT29 colon = test system: HT29 colon
TK-10 renal = test system: TK-10 renal
CAKI-1 renal = test system: CAKI-1 renal
MOLT-4 leukemia = test system: MOLT-4 leukemia

## O=S(=O)(CCCl)c1ccc(Cl)cc1
HCT-15 colon
  TGI: 12.4 µM
SNB-19 CNS
  GI50: 13.2 µM
  TGI: 41.1 µM
HCC-2998 colon
  GI50: 11.5 µM
  TGI: 25.6 µM
DU-145 prostate
  GI50: 3.33 µM
  TGI: 12.3 µM
MALME-3M melanoma
  GI50: 2.23 µM
  TGI: 7.2 µM
LOX IMVI melanoma
  GI50: 1.91 µM
  TGI: 5.1 µM
A498 renal
  GI50: 2.26 µM
  TGI: 9.94 µM
SK-MEL-5 melanoma
  GI50: 6.27 µM
  TGI: 20.4 µM
MCF7 breast
  GI50: 2.19 µM
  TGI: 10.3 µM
RPMI-8226 leukemia
  GI50: 2.8 µM
  TGI: 12 µM
HL-60(TB) leukemia
  GI50: 2.36 µM
  TGI: 9.79 µM
HS 578T breast
  GI50: 3 µM
  TGI: 19.2 µM
T-47D breast
  GI50: 3.69 µM
  TGI: 19.9 µM
OVCAR-8 ovarian
  GI50: 3.14 µM
  TGI: 12.9 µM
SF-539 CNS
  GI50: 2.46 µM
  TGI: 7.08 µM
SF-268 CNS
  GI50: 2.87 µM
  TGI: 10.8 µM
NCI-H23 lung
  GI50: 4.79 µM
  TGI: 20.6 µM
UO-31 renal
  GI50: 2.45 µM
  TGI: 8.16 µM
SK-MEL-2 melanoma
  GI50: 2.17 µM
  TGI: 5.55 µM
CCRF-CEM leukemia
  GI50: 2.95 µM
  TGI: 20.9 µM
SK-MEL-28 melanoma
  GI50: 2.38 µM
  TGI: 10.8 µM
SN12C renal
  GI50: 4.46 µM
  TGI: 16.9 µM
SR leukemia
  GI50: 3.41 µM
  TGI: > 100 µM
NCI-H460 lung
  GI50: 6.4 µM
  TGI: 24 µM
SF-295 CNS
  GI50: 18.2 µM
  TGI: 47.5 µM
HT29 colon
  GI50: 3.23 µM
  TGI: 13.8 µM
TK-10 renal
  GI50: 2.32 µM
  TGI: 6.44 µM
CAKI-1 renal
  GI50: 2.9 µM
  TGI: 13.2 µM
MOLT-4 leukemia
  GI50: 3 µM
  TGI: > 100 µM
